Structures can show the parent of a compound that is named as a salt. Activity calls are given as the source filed them. The calls are words filed in the database; no cut-off is given here.
How the values were obtained:
[1] = Inhibition of Kir channel in frog sino-atrial myocytes assessed as half-maximal response for blockade of barium and caesium-sensitive inward rectifying potassium outward current by whole cell patch clamp method; assay type: cell-based, Pelophylax lessonae, Cardiac atrium
Pelophylax lessonae [2] = test: Inhibition of Kir channel in frog sino-atrial myocytes assessed as blockade of barium and caesium-sensitive inward rectifying potassium outward current by whole cell patch clamp method; assay type: cell-based; conditions: Cardiac atrium
Pelophylax lessonae [3] = test: Inhibition of Kir channel in frog sino-atrial myocytes assessed as blockade of barium and caesium-sensitive inward rectifying potassium outward current at 1.6 uM by whole cell patch clamp method; assay type: cell-based; conditions: Cardiac atrium
Pelophylax lessonae [4] = test: Inhibition of Kir channel in frog sino-atrial myocytes assessed as blockade of barium and caesium-sensitive inward rectifying potassium outward current potential at 4.1 uM by whole cell patch clamp method; assay type: cell-based; conditions: Cardiac atrium
Pelophylax lessonae [5] = test: Inhibition of Kir channel in frog sino-atrial myocytes assessed as blockade of barium and caesium-sensitive inward rectifying potassium outward current potential at 2.5 uM by whole cell patch clamp method; assay type: cell-based; conditions: Cardiac atrium
Pelophylax lessonae [6] = test: Inhibition of Kir channel in frog sino-atrial myocytes assessed as blockade of barium and caesium-sensitive inward rectifying potassium outward current potential at 3.3 uM by whole cell patch clamp method; assay type: cell-based; conditions: Cardiac atrium

Compound | Kd [1] | Activity (Pelophylax lessonae [2]) | Activity (Pelophylax lessonae [3]) | Activity (Pelophylax lessonae [4]) | inhibition (Pelophylax lessonae [5]) | Activity (Pelophylax lessonae [6])
CCCCCC[C@@H]1CC[C@@H]2CCCC[C@]23CC[C@@H](CO)N13 [LEPADIFORMINE A HYDROCHLORIDE] | 1420 nM | Dose-dependent effect | Active |  |  | 
CCCC[C@@H]1CC[C@@H]2CCCC[C@]23CC[C@@H](CO)N13 [LEPADIFORMINE B HYDROCHLORIDE] | 1560 nM |  |  | Active | 54% | 
CCCC[C@@H]1CC[C@@H]2CCCC[C@]23CCCN13 |  |  |  |  | 8.4% | inactive

From ChEMBL document CHEMBL1157309, “Sensitivity of cardiac background inward rectifying K+ outward current (IK1) to the alkaloids lepadiformines A, B, and C” (J Nat Prod, 2006)
